According to ChEMBL document CHEMBL1201862, “PubChem BioAssay data set” (2004):
Calls of active or inactive are those of the source.

Legend:
[1] = target: T1, Endoplasmic reticulum aminopeptidase 1 (Homo sapiens, UniProt Q9NZ08); assay: ERAP1 aminopeptidase inhibitors, dose response, biochemical, cherry-pick, set 2, plate reader (AID 743314)
[2] = target: T1, Endoplasmic reticulum aminopeptidase 1; assay: ERAP1 enzyme inhibitors, dose response, biochemical, fluorescence plate reader, dry powder (AID 1117292); type: functional
[3] = tested on: Vero; assay: cells; type: functional, cell-based; conditions: Chlorocebus sabaeus
[4] = cytotoxicity toward HCT116 cells – cell-based, CellTiter-Glo luminescence, IC50, dose response (AID 1117332); type: functional; conditions: HCT-116
[5] = tested on: Vero; assay: cells; type: functional; conditions: Chlorocebus sabaeus
[6] = SNU-C1 cell viability reduction, dose response, CellTiter-Glo luminescence (AID 1117323); type: functional, cell-based
[7] = target: Heat shock protein HSP 90-alpha (Homo sapiens, UniProt P07900); type: functional, organism-based
[8] = cytotoxicity toward HT-29 cells – cell-based, CellTiter-Glo luminescence, IC50, dose response (AID 1117330); type: functional
[9] = Concentration-dependent survival of SW480 colon cancer line, luminescence detection with CellTiter-Glo, half-maximal inhibitory concentration (AID 1117338); type: functional
[10] = target: HSP90 (Plasmodium falciparum 3D7, UniProt Q8IL32); type: functional, organism-based
[11] = CellTiter-Glo luminescent dose response of DLD-1 viability loss (AID 1117352); type: functional
[12] = RKO cell viability reduction, dose response, CellTiter-Glo luminescence (AID 1117322); type: functional
[13] = HCT116 cell viability decrease, GSK3B pretreatment – CellTiter-Glo, IC50, dose response (AID 1117339); type: functional; conditions: HCT-116
[14] = cytotoxicity toward Colo320 cells – cell-based, CellTiter-Glo luminescence, IC50, dose response (AID 1117334); type: functional; conditions: COLO 320
[15] = target: Mitochondrial peptide methionine sulfoxide reductase (Bos taurus, UniProt P54149); assay: Absorbance-based biochemical high throughput dose response assay for activators of Methionine sulfoxide reductase A (MsrA).; type: functional
[16] = target: T2, Replicative DNA helicase DnaB (Mycobacterium tuberculosis, UniProt P9WMR3); assay: DnaB intein splicing inhibitors, dose response, biochemical, cell-free fluorescence (AID 449749); type: functional
T2 sequence (P9WMR3 whole entry): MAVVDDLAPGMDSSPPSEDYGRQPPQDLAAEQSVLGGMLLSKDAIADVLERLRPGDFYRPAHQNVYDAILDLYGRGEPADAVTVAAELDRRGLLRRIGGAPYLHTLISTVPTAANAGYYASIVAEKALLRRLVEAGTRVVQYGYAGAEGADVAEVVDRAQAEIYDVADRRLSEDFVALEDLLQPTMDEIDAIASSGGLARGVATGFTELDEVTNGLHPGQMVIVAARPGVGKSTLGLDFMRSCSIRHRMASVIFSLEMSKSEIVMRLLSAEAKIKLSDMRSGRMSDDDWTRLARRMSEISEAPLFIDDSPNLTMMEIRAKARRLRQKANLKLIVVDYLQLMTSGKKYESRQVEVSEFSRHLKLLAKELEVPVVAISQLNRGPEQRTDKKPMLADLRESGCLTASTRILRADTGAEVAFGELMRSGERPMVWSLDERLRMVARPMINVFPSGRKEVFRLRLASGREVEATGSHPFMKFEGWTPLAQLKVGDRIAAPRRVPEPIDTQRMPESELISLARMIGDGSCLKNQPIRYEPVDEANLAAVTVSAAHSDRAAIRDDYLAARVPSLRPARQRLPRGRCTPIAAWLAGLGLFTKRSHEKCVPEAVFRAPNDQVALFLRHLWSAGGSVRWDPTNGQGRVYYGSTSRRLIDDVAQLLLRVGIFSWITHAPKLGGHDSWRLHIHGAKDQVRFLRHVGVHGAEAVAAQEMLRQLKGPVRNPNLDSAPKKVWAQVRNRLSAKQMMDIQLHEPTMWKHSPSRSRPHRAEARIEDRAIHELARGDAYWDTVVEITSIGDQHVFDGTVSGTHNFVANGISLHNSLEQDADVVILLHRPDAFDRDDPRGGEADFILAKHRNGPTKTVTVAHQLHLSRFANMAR

[17] = target: T3, Protein RecA (Mycobacterium tuberculosis, UniProt P9WHJ3); assay: Fluorescence Cell-Free Homogeneous Dose Retest to Identify Inhibitors of RecA-Intein Splicing Activity. [Related pubchem assays (depositor defined):AID2097, AID2223, AID489010, AID492950]; type: functional
T3 sequence (P9WHJ3 whole entry): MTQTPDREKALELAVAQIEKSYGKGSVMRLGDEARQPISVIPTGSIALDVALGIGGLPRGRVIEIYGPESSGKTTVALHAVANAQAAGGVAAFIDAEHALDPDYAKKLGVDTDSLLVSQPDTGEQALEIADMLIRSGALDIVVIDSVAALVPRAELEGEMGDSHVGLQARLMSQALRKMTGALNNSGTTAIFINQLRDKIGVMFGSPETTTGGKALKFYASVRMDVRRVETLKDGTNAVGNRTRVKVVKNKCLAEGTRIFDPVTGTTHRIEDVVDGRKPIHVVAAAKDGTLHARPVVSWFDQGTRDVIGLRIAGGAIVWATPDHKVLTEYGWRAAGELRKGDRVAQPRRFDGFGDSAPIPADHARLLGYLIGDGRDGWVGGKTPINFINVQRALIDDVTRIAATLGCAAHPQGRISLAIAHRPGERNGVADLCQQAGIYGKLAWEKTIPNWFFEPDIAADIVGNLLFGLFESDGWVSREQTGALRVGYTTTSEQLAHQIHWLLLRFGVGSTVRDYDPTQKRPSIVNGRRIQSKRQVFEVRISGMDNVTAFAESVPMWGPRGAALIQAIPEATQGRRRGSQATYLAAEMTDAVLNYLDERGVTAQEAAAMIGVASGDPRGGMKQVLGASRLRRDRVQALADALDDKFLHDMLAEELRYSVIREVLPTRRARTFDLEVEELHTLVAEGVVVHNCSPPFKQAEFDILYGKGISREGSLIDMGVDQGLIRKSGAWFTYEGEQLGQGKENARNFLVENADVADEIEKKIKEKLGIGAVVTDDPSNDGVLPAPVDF

[18] = target: T4, Polyadenylate-binding protein 1 (Homo sapiens, UniProt P11940); assay: PABP1 MLLE–PAM2 binding inhibitor potency, dose response, biochemical, fluorescence polarization, FITC-PAM2 peptide (AID 602259); type: functional; conditions: read-out: IC50_Mean
[19] = target: E3 ubiquitin-protein ligase UHRF1 (Homo sapiens, UniProt Q96T88); assay: Counterscreen for inhibitors of 5-meCpG-binding domain protein 2 (MBD2): TRFRET-based biochemical high throughput dose response assay to identify inhibitors of binding of ubiquitin-like with PHD and ring finger domains 1 (UHRF1) to methylated oligonucleotide.
[20] = inhibitors of intracellular T. cruzi replication, confirmation, NIH3T3 host cells, beta-gal luminescence (AID 2044); type: functional, cell-based;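 note: intracellular parasites grown in NIH/3T3 mouse fibroblasts as host cells; luminescent beta-galactosidase reporter signal from transgenic T. cruzi replicating inside host cells; inhibitors lower the luminescence signal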
[21] = microbe, parasite or virus in culture; type: functional; conditions: Mycobacterium tuberculosis
[22] = target: T4, Polyadenylate-binding protein 1; assay: PABP1 MLLE–PAM2 interaction inhibitors, dose response, miRNA deadenylation inhibitor project, biochemical, fluorescence polarization, Cy5-PAM2 peptide, secondary (AID 602260); type: functional; conditions: read-out: IC50_Mean
[23] = target: T5, Tyrosyl-DNA phosphodiesterase 2 (Homo sapiens, UniProt O95551); assay: human TDP2 enzyme inhibitors, dose response, biochemical, epi absorbance, IC50 (AID 743297)
T5 sequence (O95551 whole entry): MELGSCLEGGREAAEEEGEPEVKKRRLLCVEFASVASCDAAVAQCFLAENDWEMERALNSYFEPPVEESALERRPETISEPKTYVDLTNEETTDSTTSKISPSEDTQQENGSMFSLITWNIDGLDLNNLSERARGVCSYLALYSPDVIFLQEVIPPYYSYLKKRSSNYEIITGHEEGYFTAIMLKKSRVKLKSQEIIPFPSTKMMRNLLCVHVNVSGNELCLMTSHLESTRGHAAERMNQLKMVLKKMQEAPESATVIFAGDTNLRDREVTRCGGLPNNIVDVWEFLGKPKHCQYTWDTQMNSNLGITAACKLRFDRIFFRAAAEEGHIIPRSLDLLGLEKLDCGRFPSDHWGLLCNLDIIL

[24] = target: Caspase-6 (Homo sapiens, UniProt P55212); assay: human caspase-6 inhibitors, dose response, biochemical, VEID-R110 fluorescence, cherry-pick (AID 720632)
[25] = AlphaScreen signal interference compounds, dose response, artefact control for ARNT-TACC3 interaction inhibitor project, biochemical, luminescence, cherry-pick (AID 651705); type: functional;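 note: AlphaScreen bead proximity signal that flags compounds interfering with the detection technology; potency reflects signal decrease which marks the compound as an assay artifact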
[26] = target: Matrix metalloproteinase-14 (Homo sapiens, UniProt P50281); assay: Dose Response confirmation of uHTS hits for a small molecule inhibitors of MT1-MMP activation in a fluorescence assay set 1.; type: functional
[27] = cytotoxicity toward NIH3T3 fibroblasts, dose response, counter-screen, cell-based, ATP luminescence, mouse fibroblasts (AID 2010); type: functional;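 note: cells exposed to compound for about 90 hours before reading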
[28] = fibronectin fibrillogenesis inhibitors in fibroblasts, dose response, AH1F cells, Alexa488-fibronectin fluorescence, cherry-pick, set 2 (AID 1117283); type: functional, cell-based
[29] = HepG2 cell cytotoxicity, dose response, cytotoxicity control, cherry-picks, set 5 (AID 1053118); type: functional, cell-based
[30] = A549 cell cytotoxicity, dose response, cytotoxicity control, cherry-picks, 26 µM top dose (AID 1053119); type: functional, cell-based

T1 sequence (Q9NZ08 whole entry): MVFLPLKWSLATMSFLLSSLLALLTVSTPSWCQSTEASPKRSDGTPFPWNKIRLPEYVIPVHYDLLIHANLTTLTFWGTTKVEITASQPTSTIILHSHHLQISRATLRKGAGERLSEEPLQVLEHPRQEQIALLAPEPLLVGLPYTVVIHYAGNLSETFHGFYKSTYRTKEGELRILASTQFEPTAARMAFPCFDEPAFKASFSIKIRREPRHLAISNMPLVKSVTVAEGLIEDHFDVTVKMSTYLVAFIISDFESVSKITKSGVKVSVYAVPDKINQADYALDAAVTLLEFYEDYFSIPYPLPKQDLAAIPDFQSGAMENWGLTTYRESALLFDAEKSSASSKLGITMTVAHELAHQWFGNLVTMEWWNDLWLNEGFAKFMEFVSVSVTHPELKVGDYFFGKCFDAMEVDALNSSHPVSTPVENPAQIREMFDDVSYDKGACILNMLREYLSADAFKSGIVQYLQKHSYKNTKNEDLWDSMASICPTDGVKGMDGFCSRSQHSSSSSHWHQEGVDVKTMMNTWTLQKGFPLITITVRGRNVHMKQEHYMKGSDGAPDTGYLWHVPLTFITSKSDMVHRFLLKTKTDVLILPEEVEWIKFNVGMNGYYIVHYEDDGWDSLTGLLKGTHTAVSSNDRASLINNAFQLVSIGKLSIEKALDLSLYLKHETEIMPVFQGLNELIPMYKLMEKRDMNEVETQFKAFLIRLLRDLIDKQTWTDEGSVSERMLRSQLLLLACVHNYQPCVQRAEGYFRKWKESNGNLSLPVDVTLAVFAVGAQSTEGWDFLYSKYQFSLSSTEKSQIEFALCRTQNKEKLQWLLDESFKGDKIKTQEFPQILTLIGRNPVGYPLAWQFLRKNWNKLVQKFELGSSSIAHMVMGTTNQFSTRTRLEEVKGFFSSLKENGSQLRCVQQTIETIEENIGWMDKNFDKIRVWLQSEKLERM
T4 sequence (P11940 whole entry, the tested form may be a part): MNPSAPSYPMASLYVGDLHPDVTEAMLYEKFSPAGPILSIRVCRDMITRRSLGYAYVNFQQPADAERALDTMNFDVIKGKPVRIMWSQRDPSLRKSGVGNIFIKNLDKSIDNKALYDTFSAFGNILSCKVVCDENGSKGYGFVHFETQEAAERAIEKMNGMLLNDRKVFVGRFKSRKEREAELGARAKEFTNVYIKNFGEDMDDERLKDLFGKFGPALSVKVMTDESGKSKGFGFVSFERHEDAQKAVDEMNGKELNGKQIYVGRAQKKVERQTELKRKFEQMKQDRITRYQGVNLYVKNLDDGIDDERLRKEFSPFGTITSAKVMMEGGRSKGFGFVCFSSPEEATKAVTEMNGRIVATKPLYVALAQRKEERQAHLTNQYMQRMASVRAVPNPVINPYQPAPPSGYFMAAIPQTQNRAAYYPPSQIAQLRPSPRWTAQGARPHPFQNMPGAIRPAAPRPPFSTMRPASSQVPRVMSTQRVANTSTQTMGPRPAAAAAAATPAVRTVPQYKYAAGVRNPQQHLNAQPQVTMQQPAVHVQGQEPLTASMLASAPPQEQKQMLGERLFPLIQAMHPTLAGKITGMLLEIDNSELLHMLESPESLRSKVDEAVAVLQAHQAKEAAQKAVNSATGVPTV
E3 ubiquitin-protein ligase UHRF1, sequence (Q96T88 whole entry, the tested form may be a part): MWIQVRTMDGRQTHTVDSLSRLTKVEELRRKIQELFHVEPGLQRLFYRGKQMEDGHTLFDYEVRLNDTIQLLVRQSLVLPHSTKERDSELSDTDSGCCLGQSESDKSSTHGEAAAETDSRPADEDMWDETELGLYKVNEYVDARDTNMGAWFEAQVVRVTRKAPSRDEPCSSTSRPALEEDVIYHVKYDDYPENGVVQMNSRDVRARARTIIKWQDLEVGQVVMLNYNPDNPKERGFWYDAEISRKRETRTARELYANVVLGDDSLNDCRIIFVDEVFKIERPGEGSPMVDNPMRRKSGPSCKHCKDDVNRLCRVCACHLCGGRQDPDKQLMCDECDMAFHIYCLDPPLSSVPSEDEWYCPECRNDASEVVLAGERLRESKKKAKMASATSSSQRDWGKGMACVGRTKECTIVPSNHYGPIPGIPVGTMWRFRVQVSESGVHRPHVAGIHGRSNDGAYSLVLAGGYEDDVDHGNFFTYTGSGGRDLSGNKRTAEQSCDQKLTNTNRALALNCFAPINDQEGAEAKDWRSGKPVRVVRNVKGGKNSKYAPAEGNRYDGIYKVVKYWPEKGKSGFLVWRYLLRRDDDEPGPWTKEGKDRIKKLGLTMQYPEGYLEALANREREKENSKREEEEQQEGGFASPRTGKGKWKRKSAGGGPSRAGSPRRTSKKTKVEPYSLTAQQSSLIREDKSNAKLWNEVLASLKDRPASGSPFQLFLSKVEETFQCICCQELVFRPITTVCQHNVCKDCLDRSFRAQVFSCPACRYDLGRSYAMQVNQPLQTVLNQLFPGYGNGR
Caspase-6, sequence (P55212 24-179 limits assumed): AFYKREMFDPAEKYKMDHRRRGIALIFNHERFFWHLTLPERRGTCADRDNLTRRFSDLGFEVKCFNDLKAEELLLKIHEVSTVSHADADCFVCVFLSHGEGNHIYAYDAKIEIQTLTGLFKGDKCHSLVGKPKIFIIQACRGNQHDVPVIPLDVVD
Caspase-6, sequence (P55212 194-293 limits assumed): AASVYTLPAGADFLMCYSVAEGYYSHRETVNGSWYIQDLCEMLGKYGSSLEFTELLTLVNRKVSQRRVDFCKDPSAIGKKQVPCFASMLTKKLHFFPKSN
Mitochondrial peptide methionine sulfoxide reductase, sequence (P54149 whole entry): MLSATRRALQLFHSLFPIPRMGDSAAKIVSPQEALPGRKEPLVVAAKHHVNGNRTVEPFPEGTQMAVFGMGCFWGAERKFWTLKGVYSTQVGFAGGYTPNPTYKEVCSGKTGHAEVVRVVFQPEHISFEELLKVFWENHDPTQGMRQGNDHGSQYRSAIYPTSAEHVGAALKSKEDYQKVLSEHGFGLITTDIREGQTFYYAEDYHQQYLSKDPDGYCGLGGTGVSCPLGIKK
HSP90, sequence (Q8IL32 whole entry): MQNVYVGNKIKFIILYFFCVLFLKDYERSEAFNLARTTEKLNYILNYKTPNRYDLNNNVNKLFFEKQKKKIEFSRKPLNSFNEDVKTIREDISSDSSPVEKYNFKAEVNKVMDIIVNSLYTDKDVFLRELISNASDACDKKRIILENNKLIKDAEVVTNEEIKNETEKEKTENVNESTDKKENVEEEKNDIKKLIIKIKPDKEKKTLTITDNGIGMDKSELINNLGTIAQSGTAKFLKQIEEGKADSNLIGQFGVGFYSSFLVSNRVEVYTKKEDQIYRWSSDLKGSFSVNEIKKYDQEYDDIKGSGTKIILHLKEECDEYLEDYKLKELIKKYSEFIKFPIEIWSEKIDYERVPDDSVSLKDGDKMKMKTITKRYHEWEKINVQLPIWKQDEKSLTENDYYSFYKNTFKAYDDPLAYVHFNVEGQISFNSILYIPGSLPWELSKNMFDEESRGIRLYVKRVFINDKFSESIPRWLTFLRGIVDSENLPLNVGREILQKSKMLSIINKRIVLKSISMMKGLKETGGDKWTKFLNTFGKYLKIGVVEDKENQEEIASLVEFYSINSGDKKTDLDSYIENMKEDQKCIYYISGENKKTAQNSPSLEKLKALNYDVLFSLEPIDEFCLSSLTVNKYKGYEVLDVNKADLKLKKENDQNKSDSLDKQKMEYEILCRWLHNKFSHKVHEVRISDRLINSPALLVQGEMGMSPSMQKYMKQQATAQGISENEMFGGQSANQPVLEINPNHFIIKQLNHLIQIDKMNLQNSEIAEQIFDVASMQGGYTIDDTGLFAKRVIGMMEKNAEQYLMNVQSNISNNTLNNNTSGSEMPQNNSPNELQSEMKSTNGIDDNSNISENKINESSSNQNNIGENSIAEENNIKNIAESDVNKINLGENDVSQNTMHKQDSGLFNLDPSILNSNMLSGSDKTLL

## N=C(NCCc1c[nH]c2ccccc12)NS(=O)(=O)c1cc(F)ccc1F
[1]
  AC50: 6.09 µM (active)
[2]
  AC50: 59.9 µM (active)

## Oc1c(Br)cc(Br)c2cccnc12 [BROXYQUINOLINE]
[3]
  IC50: > 25 µM (active)
[4]
  IC50: 0.193 µM (active)
[5]
  CC50: 18.7 µM (active)
[6]
  IC50: 0.366 µM (active)
[7]
  AC50: 0.7 µM (active)
[8]
  IC50: 5.25 µM (inactive)
[9]
  IC50: 0.132 µM (active)
[10]
  AC50: 0.373 µM (active)
[11]
  IC50: 0.157 µM (active)
[12]
  IC50: 0.163 µM (active)
[13]
  IC50: 0.183 µM (active)
[14]
  IC50: 0.114 µM (active)

## CNc1ccc2nc3ccccc3[n+](C)c2c1.[O-][Cl+3]([O-])([O-])[O-]
[15]
  EC50: 2.13 µM (active)
[16]
  AC50: > 380 µM (inactive)
[17]
  EC50: 2.37 µM (active)
[18]
  IC50: 18 µM (active)
[19]
  IC50: > 43.8 µM (inactive)
[20]
  EC50: 0.689 µM (active)
[21]
  CC50: 18.3 µM (active)
[22]
  IC50: 35.1 µM (inactive)
[23]
  IC50: > 128 µM (inactive)
[24]
  AC50: 2.79 µM (active)
[25]
  AC50: 133 µM (active)
[26]
  IC50: 14 µM (active)
[27]
  EC50: > 60 µM (not active)

## O=C(c1cccnc1)N1C[C@@H]2[C@H](c3ccccc31)[C@H](CO)N2CC1CCCC1
[28]
  AC50: > 60 µM (inactive)
[29]
  AC50: > 47 µM (inactive)
[30]
  AC50: > 47 µM (inactive)
